We go through two molecules from patent US9506031B2, “Methods and materials for increasing potency of cells” (University of Central Florida Research Foundation, Inc., priority 2004, dated 2016).

This experiment deals with human mesenchymal stem cells (MeSCs). The experiment can be described thus: Cardiac differentiation of human MeSCs in co-culture with cardiomyocytes (H9c2), RT-PCR with cardiac specific primers. The format is cell-based. Particulars: BrdU and/or 5-azaC 1-10 uM for 3 weeks, or nanog vector transfection; then co-culture with cardiomyocytes. The source says: Cardiac differentiation of human mesenchymal stem cells (MeSCs) is achieved through treatment with nucleotide derivatives BrdU and 5-azaC and/or forced expression of embryonic stem cell gene nanog. Following treatment, cells were placed in a co-culture with cardiac cells (cardiomyocyte cell line H9c2). Human MeSCs plated in 6-well culture plates and expanded in serum-DMEM (Delbecco's Modified Eagle's Medium) containing 10% MeSC formulated fetal bovine serum (FBS, Stem Cell, Inc) containing antibiotics/antimycotics. MeSCs were treated with varying concentrations (1-10 uM) of BrdU and/or 5-azaC for 3 weeks or transfected with mammalian expression vector containing a nanog encoding sequence. Cell media was changed every three days prior to co-culture with cardiomyocytes. Cardiomyocytes were expanded and grown to near confluence in serum-DMEM with 10% non-conditioned FBS and antibiotics/antimycotics. To differentiate cardiac cells, serum media was replaced with plain DMEM containing only antibiotics and allowed to differentiate. Co-cultures were created by combining MeSCs with cardiac cells and culturing in cardiac media. Following co-culture, cells were treated with TRIzol and gene expression was assessed using RT-PCR and cardiac specific primers. […]

Consider `Nc1ncn([C@@H]2O[C@H](CO)[C@@H](O)[C@H]2O)c(=O)n1` [5-azaC], for which the “expression of cardiac specific genes (RT-PCR, gel electrophoresis)” value was “expression of cardiac specific genes”.

As to `O=c1[nH]c(=O)n([C@H]2C[C@H](O)[C@@H](CO)O2)cc1Br` [BrdU], the “expression of cardiac specific genes (RT-PCR, gel electrophoresis)” value is “expression of cardiac specific genes”.
